According to patent publication US6479546B1, “Allosteric inhibitors of lipoxygenase” (The Regents of the University of California, priority 2000, dated 2002):
Where a name gives a salt, the structure may show the parent alone. Read-outs that look alike come from different tables or passages of the source. Values belong to the molecule of their own block, whether it stands above or below them.

Experiments:
[1] = Surface tension measurements (CMC); assay type: physicochemical
Procedure: Surface Tension Measurements. Buffers were used which correspond to those of the kinetic measurements. Surface tension was measured as described by Harkins et al., using a thin platinum plate (perimeter 2.5 cm) and a Cahn electro-microbalance. Harkins et al., J. Am. Chem. Soc. (1937) 59:2189-2197. Various amounts of surface active agent were added to a 30 ml buffer solution and the surface tension was continuously recorded. After each addition, a sufficiently long period of time (10-30 min.) was allowed to elapse before attaining a steady value of the surface tension. Critical micelle concentration (CMC) values were obtained by plotting the measured surface tensions versus the logarithm of the concentrations of the surface-active agent and recording the intercept of the two straight lines. The point at which a deviation from the straight line, as observed in the surface tension versus log [surface-active agent] plot, was defined as the start of pre-micellular aggregate formation. Harkins et al., supra; Verhagen et al., Chem. Phys. Lipids (1978) 22:255-259.

SLO-1 [2] = molecular target: T1, SLO-1 (Glycine max, UniProt P08170); test: Steady state kinetics / inhibition studies, SLO-1; assay type: biochemical, soybean
T1 construct: made in house
T1 sequence (P08170 1-839): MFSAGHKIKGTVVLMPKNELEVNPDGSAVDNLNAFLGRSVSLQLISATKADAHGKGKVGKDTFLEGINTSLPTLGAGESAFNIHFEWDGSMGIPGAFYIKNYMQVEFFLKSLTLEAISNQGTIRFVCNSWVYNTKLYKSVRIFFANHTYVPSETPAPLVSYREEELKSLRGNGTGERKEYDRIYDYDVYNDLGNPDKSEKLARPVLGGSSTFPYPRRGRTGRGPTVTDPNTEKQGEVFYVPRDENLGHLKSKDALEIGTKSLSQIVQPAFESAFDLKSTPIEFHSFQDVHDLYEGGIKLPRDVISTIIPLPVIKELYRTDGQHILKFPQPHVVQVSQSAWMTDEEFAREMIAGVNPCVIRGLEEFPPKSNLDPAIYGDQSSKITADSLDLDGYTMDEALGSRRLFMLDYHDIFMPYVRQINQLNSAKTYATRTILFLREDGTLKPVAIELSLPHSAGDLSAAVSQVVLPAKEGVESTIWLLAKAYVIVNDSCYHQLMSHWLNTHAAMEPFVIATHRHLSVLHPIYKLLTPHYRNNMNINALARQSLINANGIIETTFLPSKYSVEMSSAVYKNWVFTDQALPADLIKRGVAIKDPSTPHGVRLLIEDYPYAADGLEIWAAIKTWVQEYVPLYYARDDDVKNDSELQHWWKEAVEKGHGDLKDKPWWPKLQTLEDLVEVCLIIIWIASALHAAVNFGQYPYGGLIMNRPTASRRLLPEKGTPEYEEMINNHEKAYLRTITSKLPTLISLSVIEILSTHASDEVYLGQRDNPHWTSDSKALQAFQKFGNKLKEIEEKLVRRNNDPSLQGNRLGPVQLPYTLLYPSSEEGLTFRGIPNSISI
Procedure: Steady State Kinetics. Lipoxygenase rates were determined by following the formation of product at 234 nm (ε=25,000 M^−1cm^−1) with a Hewlett-Packard 8453 UV-vis spectrophotometer. The destruction of 13-HPOD by the diode array spectrophotometer were negligible under these reaction conditions. All reactions were 2 ml in volume, run at room temperature (23° C.) and constantly stirred with a rotating magnetic bar. In experiments using SLO-1, kinetic reactions were performed in 0.1 M borate (pH 9.2), while reactions using 15-HLO were performed in 25 mM HEPES (pH 7.5). Substrate solutions used in each experiment were measured for accurate LA concentration by quantitatively converting substrate to product using soybean lipoxygenase-1. Enzymatic rates were measured between 1-50 μM LA with 1-25 μM OS for SLO-1 and lower than 2 μM LA for 15-HLO. Solutions containing LA and/or OS were sonicated for 3-5 minutes before use in kinetic experiments. Rate reactions were initiated by the addition of enzyme to final concentrations of 3 nM SLO-1 (80% iron content) and 200 nM 15-HLO (15% iron content). All kinetic parameters were determined by non-linear regression using Kaleidagraph software (Abelbeck).

SLO-1 [3] = molecular target: T1, SLO-1; test: Kinetic isotope effect (KIE) titration, SLO-1; assay type: biochemical, soybean; details: for Kd: SLO-1, 5 μM LA/D-LA, pH 9.2, read-out: KD from hyperbolic fit of KIE
Procedure: Kinetic Isotope Effect Determination. Determination of the kinetic isotope effect (KIE) was similar to that previously published by Holman and coworkers with the following modifications. Lewis et al., J. Am. Chem. Soc. (1994) 116:795-796. Lipoxygenase is added (0.12 nM SLO-1 and 12 nM 15-HLO) to a protio/per-deutero LA mixture (60 mL, 5 μM LA/D-LA), monitored at 234 nm with a P-E Lambda 4 and stopped with an acid quench (5% glacial acetic acid) at less than 5% total LA/D-LA consumption. […] The acidified reaction mixture is extracted with methylene chloride (trimethylphosphite, which quantitatively reduces the labile 13-HPOD, is not needed since both the alcohol and the peroxide have the same elution time). […] (isocratic mobile phase: 74.9% Methanol :25% H2O: 0.1% Acetic acid). […] Lewis et al., supra. […] When the percent conversion (f) to product is less than 5%, this equation simplifies to ([[…]]), where [P-H] is protio-product concentration and [So-H] is the initial protio-substrate concentration. […] et al., Reaction Rates of Isotopic Molecules (R. E. Krieger Publishing, Florida)(1987). […] Greater substrate ratios than 2:1 were not used due to the expensive nature of the per-deutero substrate. Under these conditions, the upper limit for the KIE is greater than 130 and is limited by the vanishingly small peak area of the per-deutero 13-HPOD peak relative to the negative control. This RP-HPLC based method for determining molar protio/per-deutero 13-HPOD ratios gave results identical (within experimental error) to those obtained by EI-MS. No appreciable side products at any wavelength for 15-HLO or SLO-1 were observed, indicating no reaction branching. The OS titration experiments require 5 μM LA/D-LA to record product ratios. For the 15-HLO experiments (pH 7.5), OS concentrations above 6 μM were not feasible due to large amounts of a white emulsion at the extraction interface which inhibited product recovery. This emulsion was not observed for reactions performed with SLO-1 (pH 9.2). […] All kinetic data reported were measured in triplicate on two distinct days.

15-HLO = molecular target: T2, 15-HLO (Homo sapiens, UniProt P16050); test: Kinetic isotope effect (KIE) titration, 15-HLO; assay type: biochemical
T2 construct: made in house
T2 sequence (P16050 1-662): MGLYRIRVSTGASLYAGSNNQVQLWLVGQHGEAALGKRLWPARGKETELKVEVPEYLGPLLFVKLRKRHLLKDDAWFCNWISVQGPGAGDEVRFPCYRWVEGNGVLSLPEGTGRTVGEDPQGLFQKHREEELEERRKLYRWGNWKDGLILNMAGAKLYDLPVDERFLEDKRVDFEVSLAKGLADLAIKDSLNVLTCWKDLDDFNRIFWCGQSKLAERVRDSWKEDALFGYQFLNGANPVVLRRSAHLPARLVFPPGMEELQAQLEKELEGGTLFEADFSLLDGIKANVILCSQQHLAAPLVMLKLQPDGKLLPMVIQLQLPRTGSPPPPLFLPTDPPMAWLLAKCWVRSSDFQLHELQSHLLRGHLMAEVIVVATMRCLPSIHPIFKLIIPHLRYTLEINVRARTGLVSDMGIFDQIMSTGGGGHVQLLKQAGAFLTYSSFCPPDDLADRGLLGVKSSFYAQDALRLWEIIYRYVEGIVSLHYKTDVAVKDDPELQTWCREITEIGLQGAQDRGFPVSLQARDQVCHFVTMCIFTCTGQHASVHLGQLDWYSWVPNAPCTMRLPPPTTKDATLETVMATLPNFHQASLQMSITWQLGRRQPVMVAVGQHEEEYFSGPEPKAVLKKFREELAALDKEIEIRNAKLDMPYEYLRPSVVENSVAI
Procedure: Kinetic Isotope Effect Determination. Determination of the kinetic isotope effect (KIE) was similar to that previously published by Holman and coworkers with the following modifications. Lewis et al., J. Am. Chem. Soc. (1994) 116:795-796. Lipoxygenase is added (0.12 nM SLO-1 and 12 nM 15-HLO) to a protio/per-deutero LA mixture (60 mL, 5 μM LA/D-LA), monitored at 234 nm with a P-E Lambda 4 and stopped with an acid quench (5% glacial acetic acid) at less than 5% total LA/D-LA consumption. It is important to note that diode array spectrophotometers degrade 13-hydroperoxy-9,11-(Z,E)-octadecadienoic acid (13-HPOD) and care should be taken if the reaction time length is longer than 5 minutes. The acidified reaction mixture is extracted with methylene chloride (trimethylphosphite, which quantitatively reduces the labile 13-HPOD, is not needed since both the alcohol and the peroxide have the same elution time). The methylene chloride layer is evaporated to dryness under vacuum, reconstituted in 50 μL running buffer, injected onto a C18 column (Higgins Analytical, 5 micron, 250×4.6 mm), and eluted at 1 mL/min. (isocratic mobile phase: 74.9% Methanol :25% H2O: 0.1% Acetic acid). […] All kinetic data reported were measured in triplicate on two distinct days.

CMC ([1]; 25 mM HEPES (pH 7.5)): 40 ± 10 µM | CMC ([1]; 0.1 M borate (pH 9.2)): 150 ± 10 µM | Kd (SLO-1 [2]; SLO-1, no appreciable substrate inhibition below 30 μM LA, read-out: KD (allosteric site)): > 30 µM
SMILES: CCCCC/C=C\C/C=C\CCCCCCCC(=O)O [LA, Linoleic Acid]

Kd (SLO-1 [3]): 36 ± 14 µM
SMILES: CCCCCCCC/C=C\CCCCCCCC(=O)O [OA, oleic acid]

Kd (SLO-1 [3]): 0.6 ± 0.2 µM | Kd (15-HLO; 5 μM LA/D-LA, pH 7.5, read-out: KD from hyperbolic fit of KIE): 0.4 ± 0.05 µM | Kd (15-HLO; conclusion, unit inferred, read-out: KD): 0.45 ± 0.05 µM | lessens the rate of catalysis (k2 decreases) (SLO-1 [2]; SLO-1): 15% | Ki (SLO-1 [2]; fit to Km (app) saturation curve, Eq. 3, read-out: Ki): 0.45 ± 0.16 µM | Ki (SLO-1 [2]; fit to kcat/Km data, Eq. 4, β approximated 0.85, read-out: Ki): 0.86 ± 0.11 µM | Ki (SLO-1 [2]; simulation Scheme 3, Eqs. 7 and 8, read-out: Kii (catalytic site), minimal value): ≥ 100 µM
SMILES: CCCCCCCC/C=C\CCCCCCCCOS(=O)(=O)O [OS, (Z)-9-octadecenyl sulfate]

effect on KIE (SLO-1 [3]; control for non-specific surfactant binding): no increase in the KIE
SMILES: CCCCCCCCCCCCOS(=O)(=O)[O-].[Na+] [SDS]
